Laboratory results taken from PubChem BioAssay (NCI).
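Results reflect a 48-hour exposure of cells in 96-well plates to compound at five concentrations. Definition used: TGI = concentration required for complete inhibition of growth.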

Tests used:
Assay in all cases: NCI anticancer screen, dose series, 48 h
786-0 renal = system: 786-0 renal
A498 renal = system: A498 renal
A549 NSCLC = system: A549 NSCLC
ACHN renal = system: ACHN renal
CAKI-1 renal = system: CAKI-1 renal
CCRF-CEM leukemia = system: CCRF-CEM leukemia
COLO 205 colon = system: COLO 205 colon
DLD-1 colon = system: DLD-1 colon
DMS 114 small cell lung = system: DMS 114 small cell lung
EKVX NSCLC = system: EKVX NSCLC
HCC-2998 colon = system: HCC-2998 colon
HCT-116 colon = system: HCT-116 colon
HCT-15 colon = system: HCT-15 colon
HL-60(TB) leukemia = system: HL-60(TB) leukemia
HOP-18 NSCLC = system: HOP-18 NSCLC
HOP-62 NSCLC = system: HOP-62 NSCLC
HOP-92 NSCLC = system: HOP-92 NSCLC
HT29 colon = system: HT29 colon
IGROV1 ovarian = system: IGROV1 ovarian
K-562 leukemia = system: K-562 leukemia
KM12 colon = system: KM12 colon
KM20L2 colon = system: KM20L2 colon
LOX IMVI melanoma = system: LOX IMVI melanoma
LXFL 529 NSCLC = system: LXFL 529 NSCLC
M14 melanoma = system: M14 melanoma
M19-MEL melanoma = system: M19-MEL melanoma
MALME-3M melanoma = system: MALME-3M melanoma
MOLT-4 leukemia = system: MOLT-4 leukemia
NCI-H226 lung = system: NCI-H226 lung
NCI-H23 lung = system: NCI-H23 lung
NCI-H460 lung = system: NCI-H460 lung
NCI-H522 lung = system: NCI-H522 lung
OVCAR-3 ovarian = system: OVCAR-3 ovarian
OVCAR-4 ovarian = system: OVCAR-4 ovarian
OVCAR-5 ovarian = system: OVCAR-5 ovarian
OVCAR-8 ovarian = system: OVCAR-8 ovarian
RPMI-8226 leukemia = system: RPMI-8226 leukemia
RXF 393 renal = system: RXF 393 renal
SF-268 CNS = system: SF-268 CNS
SF-295 CNS = system: SF-295 CNS
SF-539 CNS = system: SF-539 CNS
SK-MEL-2 melanoma = system: SK-MEL-2 melanoma
SK-MEL-28 melanoma = system: SK-MEL-28 melanoma
SK-MEL-5 melanoma = system: SK-MEL-5 melanoma
SK-OV-3 ovarian = system: SK-OV-3 ovarian
SN12C renal = system: SN12C renal
SNB-19 CNS = system: SNB-19 CNS
SNB-75 CNS = system: SNB-75 CNS
SNB-78 CNS = system: SNB-78 CNS
SR leukemia = system: SR leukemia
SW-620 colon = system: SW-620 colon
TK-10 renal = system: TK-10 renal
U251 CNS = system: U251 CNS
UACC-257 melanoma = system: UACC-257 melanoma
UACC-62 melanoma = system: UACC-62 melanoma
UO-31 renal = system: UO-31 renal
XF 498 CNS = system: XF 498 CNS
BT-549 breast = system: BT-549 breast
DU-145 prostate = system: DU-145 prostate
HS 578T breast = system: HS 578T breast
MCF7 breast = system: MCF7 breast
MDA-MB-231 breast = system: MDA-MB-231 breast
MDA-MB-435 = system: MDA-MB-435
MDA-N = system: MDA-N
NCI/ADR-RES ovarian = system: NCI/ADR-RES ovarian
PC-3 prostate = system: PC-3 prostate
T-47D breast = system: T-47D breast

For `OCCCNc1ccnc2cc(Cl)ccc12`, the TGI (786-0 renal) was greater than 100 µM, the TGI (A498 renal) was greater than 100 µM and the TGI (A549 NSCLC) was greater than 100 µM. For the same compound, the TGI (ACHN renal) was greater than 100 µM, the TGI (CAKI-1 renal) was greater than 100 µM and the TGI (CCRF-CEM leukemia) was greater than 100 µM. For the same compound, the TGI (COLO 205 colon) was greater than 100 µM, the TGI (DLD-1 colon) was greater than 100 µM and the TGI (DMS 114 small cell lung) was greater than 100 µM. The TGI (EKVX NSCLC) was greater than 100 µM, the TGI (HCC-2998 colon) was greater than 100 µM and the TGI (HCT-116 colon) was greater than 100 µM. For the same compound, the TGI (HCT-15 colon) was greater than 100 µM, the TGI (HL-60(TB) leukemia) was greater than 100 µM and the TGI (HOP-18 NSCLC) was greater than 100 µM. For the same compound, the TGI (HOP-62 NSCLC) was greater than 100 µM, the TGI (HOP-92 NSCLC) was greater than 100 µM and the TGI (HT29 colon) was greater than 100 µM. For the same compound, the TGI (IGROV1 ovarian) was greater than 100 µM, the TGI (K-562 leukemia) was greater than 100 µM and the TGI (KM12 colon) was greater than 100 µM. It also gave a TGI (KM20L2 colon) greater than 100 µM, a TGI (LOX IMVI melanoma) greater than 100 µM and a TGI (LXFL 529 NSCLC) greater than 100 µM. For the same compound, the TGI (M14 melanoma) was greater than 100 µM, the TGI (M19-MEL melanoma) was greater than 100 µM and the TGI (MALME-3M melanoma) was greater than 100 µM. The TGI (MOLT-4 leukemia) was greater than 100 µM, the TGI (NCI-H226 lung) was greater than 100 µM and the TGI (NCI-H23 lung) was greater than 100 µM. For the same compound, the TGI (NCI-H460 lung) was greater than 100 µM, the TGI (NCI-H522 lung) was greater than 100 µM and the TGI (OVCAR-3 ovarian) was greater than 100 µM. For the same compound, the TGI (OVCAR-4 ovarian) was greater than 100 µM, the TGI (OVCAR-5 ovarian) was greater than 100 µM and the TGI (OVCAR-8 ovarian) was greater than 100 µM. It also gave a TGI (RPMI-8226 leukemia) greater than 100 µM, a TGI (RXF 393 renal) greater than 100 µM and a TGI (SF-268 CNS) greater than 100 µM. The TGI (SF-295 CNS) was greater than 100 µM, the TGI (SF-539 CNS) was greater than 100 µM and the TGI (SK-MEL-2 melanoma) was greater than 100 µM. The TGI (SK-MEL-28 melanoma) was greater than 100 µM, the TGI (SK-MEL-5 melanoma) was greater than 100 µM and the TGI (SK-OV-3 ovarian) was greater than 100 µM. For the same compound, the TGI (SN12C renal) was greater than 100 µM, the TGI (SNB-19 CNS) was greater than 100 µM and the TGI (SNB-75 CNS) was greater than 100 µM. It also gave a TGI (SNB-78 CNS) greater than 100 µM, a TGI (SR leukemia) greater than 100 µM and a TGI (SW-620 colon) greater than 100 µM. The TGI (TK-10 renal) was greater than 100 µM, the TGI (U251 CNS) was greater than 100 µM and the TGI (UACC-257 melanoma) was greater than 100 µM. The TGI (UACC-62 melanoma) was greater than 100 µM, the TGI (UO-31 renal) was greater than 100 µM and the TGI (XF 498 CNS) was greater than 100 µM.
`Cc1ccc([N+](=O)[O-])cc1S(=O)(=O)Nc1ccc(C2=NOC(c3cccs3)C2)cc1` (stereo not given) was tested, and the TGI (786-0 renal) was 37.7 µM, the TGI (A498 renal) was 36.7 µM and the TGI (A549 NSCLC) was 67.2 µM. The TGI (ACHN renal) was 46.3 µM, the TGI (BT-549 breast) was 41 µM and the TGI (CAKI-1 renal) was 70.4 µM. For the same compound, the TGI (CCRF-CEM leukemia) was 50.2 µM, the TGI (COLO 205 colon) was greater than 100 µM and the TGI (DU-145 prostate) was 52.7 µM. For the same compound, the TGI (EKVX NSCLC) was 65 µM, the TGI (HCC-2998 colon) was 21.9 µM and the TGI (HCT-116 colon) was 28.1 µM. For the same compound, the TGI (HCT-15 colon) was 28.5 µM, the TGI (HL-60(TB) leukemia) was 25.7 µM and the TGI (HOP-62 NSCLC) was 29.1 µM. The TGI (HOP-92 NSCLC) was 57 µM, the TGI (HS 578T breast) was 83 µM and the TGI (HT29 colon) was 40.2 µM. The TGI (IGROV1 ovarian) was 30 µM, the TGI (K-562 leukemia) was 43.6 µM and the TGI (KM12 colon) was 29.1 µM. The TGI (LOX IMVI melanoma) was 23.6 µM, the TGI (M14 melanoma) was 20.8 µM and the TGI (MALME-3M melanoma) was greater than 100 µM. The TGI (MCF7 breast) was 23.4 µM, the TGI (MDA-MB-231 breast) was greater than 100 µM and the TGI (MDA-MB-435) was 10.4 µM. For the same compound, the TGI (MDA-N) was 10.4 µM, the TGI (MOLT-4 leukemia) was 22.3 µM and the TGI (NCI-H226 lung) was greater than 100 µM. It also gave a TGI (NCI-H23 lung) of 73.4 µM, a TGI (NCI-H460 lung) of 28.8 µM and a TGI (NCI-H522 lung) of 21.2 µM. It also gave a TGI (NCI/ADR-RES ovarian) of 41.1 µM, a TGI (OVCAR-3 ovarian) of 19.7 µM and a TGI (OVCAR-4 ovarian) of 32.3 µM. The TGI (OVCAR-5 ovarian) was greater than 100 µM, the TGI (OVCAR-8 ovarian) was 69.9 µM and the TGI (PC-3 prostate) was greater than 100 µM. It also gave a TGI (RPMI-8226 leukemia) of 94.5 µM, a TGI (RXF 393 renal) of 22.4 µM and a TGI (SF-268 CNS) of 99.2 µM. For the same compound, the TGI (SF-295 CNS) was 44.1 µM, the TGI (SF-539 CNS) was 56.5 µM and the TGI (SK-MEL-2 melanoma) was 28.3 µM. The TGI (SK-MEL-28 melanoma) was greater than 100 µM, the TGI (SK-MEL-5 melanoma) was 22.5 µM and the TGI (SK-OV-3 ovarian) was 52.2 µM. The TGI (SN12C renal) was 53.3 µM, the TGI (SNB-19 CNS) was 53.1 µM and the TGI (SNB-75 CNS) was 61.8 µM. It also gave a TGI (SR leukemia) of 11.5 µM, a TGI (SW-620 colon) of 48.4 µM and a TGI (T-47D breast) of 50.5 µM. The TGI (TK-10 renal) was 50.3 µM, the TGI (UACC-257 melanoma) was 49.6 µM and the TGI (UACC-62 melanoma) was 17.8 µM. It also gave a TGI (UO-31 renal) of 21.9 µM.
